Results on 7 compounds are retold here after patent publication US4390523A, “Sorbose for inhibiting fermentation acids in the mouth” (priority 1972, dated 1983).

Where two headings read alike, the source gives them in different places.

For data set [1] the following is noted: cited from earlier work.
The conditions of data set [2]: printed as "hydroscopic"; cited from earlier work.
The subject of data set [3] is oral bacteria (dilute human saliva). As to the kind of experiment: Formation of acids and lowering of pH by fermentation by oral bacteria (Table III). Conditions: for pH of medium / NaOH necessary for neutralization: 1 ml of 18% solution in 10 ml medium; for pH of medium: saliva, 37° C.; for NaOH necessary for neutralization: N/40 NaOH; for formation of acids / acidification (conclusion) / lowering of the pH to: medium inoculated with dilute saliva. It is filed as cell-based. Here is the method:
A series of tubes containing 10 ml of a sugarless nutritive culture medium at pH 7 was prepared. These tubes were sterilized by passing them through an autoclave at 120° C. for 20 minutes.
1 ml of sterile water was introduced into a first series of five tubes to make a control series.
1 ml of a sterile 18% solution of dextrose (weight/volume=W/V) was introduced into a second series of five tubes.
1 ml of a sterile 18% solution of saccharose (W/V) was introduced into a third series of five tubes.
1 ml of a sterile 18% solution of sorbose (W/V) was introduced into a fourth series of five tubes.
The sterile solutions of dextrose, saccharose and sorbose were obtained by sterilizing filtration by the usual technique.
A dilution of human saliva was prepared for immediate use and four tubes of each series were inoculated with the same volume of dilute saliva.
The formation of acids was followed by electric measurement of the pH and by determination of the quantity of acids formed; this determination was effected with a N/40 sodium/hydroxide solution, phenolphthalein being used as a neutralization indicator; a first determination was made before incubation, the following four determinations after incubations of 3, 6, 10 and 24 hours, respectively, at 37° C.
The results are assembled in Table III (pH value and value of the number of ml of sodium hydroxide necessary for neutralization).

Data set [4] shares this test system. Conditions: background statement; cited from earlier work.

Regarding `OC[C@@H](O)[C@@H](O)[C@H](O)[C@@H](O)CO` [sorbitol], the laxative effect result in data set [1] (in vivo) is “laxative in high doses”.

Regarding cyclamates, the harmfulness entry in data set [1] (in vivo) was “subject of serious reservations on the part of the medical profession in regards to their harmfulness”.

In the case of `O=C(CO)[C@@H](O)[C@H](O)[C@H](O)CO` [levulose, reference compound], in data set [2], the hygroscopicity result is on record as “very hydroscopic”.

For the compound `OC[C@H]1O[C@@](CO)(O[C@H]2O[C@H](CO)[C@@H](O)[C@H](O)[C@H]2O)[C@@H](O)[C@@H]1O` [saccharose], the pH of medium came to 7.0 in data set [3] (0 hours); 6.90 in data set [3] (3 hours); 6.90 in data set [3] (6 hours); 6.10 in data set [3] (10 hours); 5.10 in data set [3] (24 hours). Also, the “NaOH necessary for neutralization” value in data set [3] (0 hours) is 2.50 mL; in data set [3] (3 hours), 2.45 mL; in data set [3] (6 hours) it was 2.40 mL; in data set [3] (10 hours) it was 3.20 mL; in data set [3] (24 hours), 6.10 mL. Besides, in data set [3], the “formation of acids / acidification (conclusion)” value is recorded as “distinct acidification”. Also, in data set [3], the “lowering of the pH to” value is 5.1. The cariogenic properties entry in data set [4] is on record as “has cariogenic properties”. The “formation of acids and lowering of pH under the action of mouth bacteria (general statement)” value in data set [4] is “give rise to a lowering of the pH and a considerable production of acids”.

Consider `O=C[C@H](O)[C@@H](O)[C@H](O)[C@H](O)CO` [dextrose], for which the pH of medium in data set [3] (0 hours) stood at 7.0; in data set [3] (3 hours) it was 6.90; in data set [3] (6 hours) it was 6.80; in data set [3] (10 hours) it was 6.50; in data set [3] (24 hours) it was 5.30. The “NaOH necessary for neutralization” value in data set [3] (0 hours) amounted to 2.50 mL; in data set [3] (3 hours), 2.25 mL; in data set [3] (6 hours) it was 2.40 mL; in data set [3] (10 hours), 2.80 mL; in data set [3] (24 hours) it was 5.70 mL. In addition, the “formation of acids / acidification (conclusion)” value in data set [3] was “distinct acidification”. The “lowering of the pH to” value in data set [3] was determined as 5.3. For the same compound, in data set [4], the “formation of acids and lowering of pH under the action of mouth bacteria (general statement)” value was “give rise to a lowering of the pH and a considerable production of acids”.

Consider `OC[C@@H](O)[C@@H](O)[C@H](O)[C@H](O)CO` [mannitol], for which the laxative effect result in data set [1] (in vivo) was “laxative in high doses”.

For the compound `OC[C@@H](O)[C@H](O)[C@@H](O)CO` [xylitol], the laxative effect entry in data set [1] (high doses) is “laxative in high doses”.
